Data from US8471005B2 (Cephalon, Inc., priority 2008, dated 2013).
Where two headings read alike, the source gives them in different places.

Assays:
[1] = target: T1, ALK (Homo sapiens, UniProt Q9UM73); test: ALK Kinase Assay (ELISA/TRF, PLC-γ substrate); format: biochemical; settings: read-out: ALK Potency
T1 construct: host or cells: baculovirus expression system
Summary of the method: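 PLC-γ coat 10 μg/mL in TBS; ALK 30 ng/ml added to start; 37° C, 15 min; Eu-N1 PT66 antibody detection (TRF). IC50: % inhibition vs log10 [cpd], variable-slope sigmoidal fit.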

[2] = target: T2, JAK2 (Homo sapiens, UniProt O60674); test: Recombinant Human JAK2 Kinase Assay (TRF); format: biochemical; settings: read-out: JAK2 Potency
T2 construct: host or cells: baculovirus expression system
T2 sequence (O60674 whole entry): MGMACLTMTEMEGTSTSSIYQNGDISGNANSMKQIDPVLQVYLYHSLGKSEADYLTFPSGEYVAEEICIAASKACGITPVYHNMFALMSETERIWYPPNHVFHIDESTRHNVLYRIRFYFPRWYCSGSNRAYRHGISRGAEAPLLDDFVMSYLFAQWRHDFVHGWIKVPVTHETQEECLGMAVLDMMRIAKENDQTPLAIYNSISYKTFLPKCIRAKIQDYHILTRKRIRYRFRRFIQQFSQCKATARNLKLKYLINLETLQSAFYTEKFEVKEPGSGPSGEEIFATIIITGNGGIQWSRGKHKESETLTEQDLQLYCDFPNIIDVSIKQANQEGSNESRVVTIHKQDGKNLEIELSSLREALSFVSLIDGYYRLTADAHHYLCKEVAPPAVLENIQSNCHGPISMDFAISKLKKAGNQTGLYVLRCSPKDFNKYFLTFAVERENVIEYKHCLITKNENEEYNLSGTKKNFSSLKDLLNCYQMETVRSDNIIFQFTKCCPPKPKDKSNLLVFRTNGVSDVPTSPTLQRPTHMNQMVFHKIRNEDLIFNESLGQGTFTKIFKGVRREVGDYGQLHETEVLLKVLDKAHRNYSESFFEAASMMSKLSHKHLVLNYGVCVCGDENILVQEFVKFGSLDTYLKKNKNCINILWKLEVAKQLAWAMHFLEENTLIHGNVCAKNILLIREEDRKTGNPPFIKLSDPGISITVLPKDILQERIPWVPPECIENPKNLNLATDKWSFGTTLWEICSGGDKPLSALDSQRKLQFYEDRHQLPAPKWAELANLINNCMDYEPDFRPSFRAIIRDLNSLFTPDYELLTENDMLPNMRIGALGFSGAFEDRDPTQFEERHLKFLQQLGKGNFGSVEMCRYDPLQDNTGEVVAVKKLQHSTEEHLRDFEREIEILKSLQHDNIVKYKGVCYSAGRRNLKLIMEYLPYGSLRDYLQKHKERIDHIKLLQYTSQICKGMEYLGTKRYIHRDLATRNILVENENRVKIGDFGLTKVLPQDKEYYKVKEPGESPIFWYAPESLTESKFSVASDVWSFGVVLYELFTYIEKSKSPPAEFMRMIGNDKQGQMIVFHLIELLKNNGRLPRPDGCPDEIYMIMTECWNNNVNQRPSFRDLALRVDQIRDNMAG
Summary of the method: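 Baculovirus-expressed JAK2 (15 ng/ml) phosphorylated a biotinylated 15-mer peptide captured on Neutravidin, in 20 mM HEPES pH 7.2, 0.2 μM ATP, 1 mM MnCl2, 0.1% BSA, 2.5% DMSO final, 20 min at room temperature. Phosphoproduct detected by time-resolved fluorescence with Eu-N1-labelled PY100 antibody.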

[3] = ALK kinase inhibition, 1 μM ATP
[4] = JAK2 kinase inhibition, 0.2 μM ATP

T1 sequence (Q9UM73 19-1620): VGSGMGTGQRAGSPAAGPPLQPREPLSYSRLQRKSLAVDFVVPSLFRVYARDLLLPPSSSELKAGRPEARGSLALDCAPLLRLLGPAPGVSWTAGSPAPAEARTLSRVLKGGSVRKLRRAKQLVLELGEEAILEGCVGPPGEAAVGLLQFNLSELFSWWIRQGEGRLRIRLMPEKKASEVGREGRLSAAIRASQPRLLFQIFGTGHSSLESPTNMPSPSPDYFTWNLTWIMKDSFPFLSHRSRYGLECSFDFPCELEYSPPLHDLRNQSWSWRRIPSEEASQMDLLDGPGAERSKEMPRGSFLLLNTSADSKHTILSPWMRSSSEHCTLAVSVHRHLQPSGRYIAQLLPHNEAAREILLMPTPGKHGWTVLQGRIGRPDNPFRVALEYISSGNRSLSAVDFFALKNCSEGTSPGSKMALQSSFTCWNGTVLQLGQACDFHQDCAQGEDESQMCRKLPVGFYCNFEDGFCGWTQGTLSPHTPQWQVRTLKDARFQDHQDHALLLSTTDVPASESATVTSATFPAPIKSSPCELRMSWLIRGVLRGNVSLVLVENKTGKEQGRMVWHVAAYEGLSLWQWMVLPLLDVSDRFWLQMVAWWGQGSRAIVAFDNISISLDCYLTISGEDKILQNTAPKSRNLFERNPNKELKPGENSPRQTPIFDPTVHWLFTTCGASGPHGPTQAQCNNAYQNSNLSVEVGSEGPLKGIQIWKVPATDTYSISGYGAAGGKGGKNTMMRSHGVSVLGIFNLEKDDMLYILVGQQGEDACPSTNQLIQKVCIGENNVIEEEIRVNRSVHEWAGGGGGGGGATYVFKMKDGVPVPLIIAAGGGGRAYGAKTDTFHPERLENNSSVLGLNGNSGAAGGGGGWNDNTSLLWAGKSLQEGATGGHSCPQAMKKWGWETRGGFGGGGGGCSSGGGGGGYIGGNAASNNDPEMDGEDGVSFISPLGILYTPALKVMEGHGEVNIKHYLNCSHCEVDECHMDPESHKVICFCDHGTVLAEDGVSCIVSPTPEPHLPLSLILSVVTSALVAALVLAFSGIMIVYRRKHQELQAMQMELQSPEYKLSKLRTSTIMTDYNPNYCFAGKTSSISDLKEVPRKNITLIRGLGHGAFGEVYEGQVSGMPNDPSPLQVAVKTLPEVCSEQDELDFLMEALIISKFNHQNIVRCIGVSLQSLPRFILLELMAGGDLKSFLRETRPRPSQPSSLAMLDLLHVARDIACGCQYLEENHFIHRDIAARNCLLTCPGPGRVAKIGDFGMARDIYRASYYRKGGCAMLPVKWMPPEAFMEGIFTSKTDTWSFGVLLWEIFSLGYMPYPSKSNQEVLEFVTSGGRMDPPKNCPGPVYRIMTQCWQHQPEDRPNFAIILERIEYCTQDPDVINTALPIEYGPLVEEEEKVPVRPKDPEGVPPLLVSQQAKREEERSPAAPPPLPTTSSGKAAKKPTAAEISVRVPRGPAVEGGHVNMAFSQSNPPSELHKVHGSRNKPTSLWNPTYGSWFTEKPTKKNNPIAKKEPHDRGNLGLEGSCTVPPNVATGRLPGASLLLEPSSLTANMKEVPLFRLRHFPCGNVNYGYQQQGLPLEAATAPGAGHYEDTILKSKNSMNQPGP

| Compound | IC50 [1, 3] [nM] | IC50 [2, 4] [nM] | IC50 ([1]; ALK Kinase Inhibition) [nM] | IC50 ([2]; JAK2 Kinase Inhibition) [nM] |
| --- | --- | --- | --- | --- |
| Cc1cc(Nc2ncc3ccc(-c4cccc(S(C)(=O)=O)c4)n3n2)ccc1C1CCN(C)CC1 [Example 946, [7-(3-Methanesulfonyl-phenyl)-pyrrolo[2,1-f][1,2,4]triazin-2-yl]-[3-methyl-4-(1-methyl-piperidin-4-yl)-phenyl]-amine] | < 100 | < 100 | – | – |
| COc1cccc(Nc2ncc3ccc(-c4cccc(Cl)c4)n3n2)c1 [Example 146, [7-(3-Chloro-phenyl)-pyrrolo[2,1-f][1,2,4]triazin-2-yl]-(3-methoxy-phenyl)-amine] | – | – | > 10000 | < 100 |
| COc1cc2c(cc1Nc1ncc3ccc(-c4ccccc4OC)n3n1)CN(C1COC1)C2 [Example 850, (6-Methoxy-2-oxetan-3-yl-2,3-dihydro-1H-isoindol-5-yl)-[7-(2-methoxy-phenyl)-pyrrolo[2,1-f][1,2,4]triazin-2-yl]-amine] | < 100 | < 100 | – | – |
| N#CCOc1ccccc1-c1ccc2cnc(Nc3ccc(N4CCOCC4)cc3)nn12 [Example 1144, {2-[2-(4-Morpholin-4-yl-phenylamino)-pyrrolo[2,1-f][1,2,4]triazin-7-yl]-phenoxy}-acetonitrile] | < 100 | < 100 | – | – |
| CS(=O)(=O)c1ccc(-c2ccc3cnc(Nc4ccc(C5CCN(CCO)CC5)cc4)nn23)cc1 [Example 679, 2-(4-{4-[7-(4-Methanesulfonyl-phenyl)-pyrrolo[2,1-f][1,2,4]triazin-2-ylamino]-phenyl}-piperidin-1-yl)-ethanol] | < 100 | < 100 | – | – |
| c1cncc(-c2ccc3cnc(Nc4ccc(N5CCOCC5)cc4)nn23)c1 [Example 11, (4-Morpholin-4-yl-phenyl)-(7-pyridin-3-yl-pyrrolo[2,1-f][1,2,4]triazin-2-yl)-amine] | – | – | 1000 to 10000 | < 100 |
| CC(C)(C)NS(=O)(=O)c1cccc(-c2ccc3cnc(Nc4ccc(Cl)cc4)nn23)c1 [Example 1400, N-tert-Butyl-3-[2-(4-chloro-phenylamino)-pyrrolo[2,1-f][1,2,4]triazin-7-yl]-benzenesulfonamide] | – | – | 1000 to 10000 | < 100 |
| CCc1nc2ccc(Nc3ncc4ccc(-c5cccc(S(=O)(=O)NC(C)(C)C)c5)n4n3)cc2[nH]1 [Example 1328, N-tert-Butyl-3-[2-(2-ethyl-3H-benzimidazol-5-ylamino)-pyrrolo[2,1-f][1,2,4]triazin-7-yl]-benzenesulfonamide] | 100 to 1000 | < 100 | – | – |
| COc1cc(N2CCC(N3CCOCC3)CC2)ccc1Nc1ncc2ccc(-c3ccccc3N(C)S(C)(=O)=O)n2n1 [Example 1453, N-(2-{2-[2-Methoxy-4-(4-morpholin-4-yl-piperidin-1-yl)-phenylamino]-pyrrolo[2,1-f][1,2,4]triazin-7-yl}-phenyl)-N-methyl-methanesulfonamide] | – | – | < 100 | 100 to 1000 |
| COc1cc(N2CCC(N3CCOCC3)CC2)ccc1Nc1ncc2ccc(-c3ccccc3Cl)n2n1 [Example 1466, [7-(2-Chloro-phenyl)-pyrrolo[2,1-f][1,2,4]triazin-2-yl]-[2-methoxy-4-(4-morpholin-4-yl-piperidin-1-yl)-phenyl]-amine] | – | – | < 100 | < 100 |
| COc1cc(N2CCN(C)CC2)ccc1Nc1ncc2ccc(-c3cccnc3OC)n2n1 [Example 34, [2-Methoxy-4-(4-methyl-piperazin-1-yl)-phenyl]-[7-(2-methoxy-pyridin-3-yl)-pyrrolo[2,1-f][1,2,4]triazin-2-yl]-amine] | – | – | < 100 | < 100 |
| COc1ccc(Cl)cc1-c1ccc2cnc(Nc3cccc(N4CCC(N5CCOCC5)CC4)c3)nn12 [Example 196, [7-(5-Chloro-2-methoxy-phenyl)-pyrrolo[2,1-f][1,2,4]triazin-2-yl]-[3-(4-morpholin-4-yl-piperidin-1-yl)-phenyl]-amine] | – | – | < 100 | < 100 |
| CN1CCN(Cc2nc3ccc(Nc4ncc5ccc(-c6cccc(S(=O)(=O)NC(C)(C)C)c6)n5n4)cc3[nH]2)CC1 [Example 1524, N-tert-Butyl-3-{2-[2-(4-methyl-piperazin-1-ylmethyl)-3H-benzimidazol-5-ylamino]-pyrrolo[2,1-f][1,2,4]triazin-7-yl}-benzenesulfonamide] | – | – | 100 to 1000 | < 100 |
| COc1ccccc1-c1ccc2cnc(Nc3ccc(F)c(N4CCOCC4)c3)nn12 [Example 389, (4-Fluoro-3-morpholin-4-yl-phenyl)-[7-(2-methoxy-phenyl)-pyrrolo[2,1-f][1,2,4]triazin-2-yl]-amine] | – | – | 100 to 1000 | < 100 |
| COc1cc(C2CCN(CCO)CC2)ccc1Nc1ncc2ccc(-c3cccc(S(=O)(=O)NC4CC4)c3)n2n1 [Example 698] | < 100 | 100 to 1000 | – | – |
| N#Cc1ccc2cnc(Nc3ccc(N4CCOCC4)cc3)nn12 [Example 51, 2-(4-Morpholin-4-yl-phenylamino)-pyrrolo[2,1-f][1,2,4]triazine-7-carbonitrile] | – | – | > 10000 | < 100 |
| COc1ccccc1-c1ccc2cnc(Nc3ccc4c(c3)CN(CC(N)=O)C4)nn12 [Example 925, 2-{5-[7-(2-Methoxy-phenyl)-pyrrolo[2,1-f][1,2,4]triazin-2-ylamino]-1,3-dihydro-isoindol-2-yl}-acetamide] | 100 to 1000 | < 100 | – | – |
| COc1ccccc1-c1ccc2cnc(Nc3ccc(C4CCN(CC(N)=O)CC4)c(OC)c3)nn12 [Example 912, 2-(4-{2-Methoxy-4-[7-(2-methoxy-phenyl)-pyrrolo[2,1-f][1,2,4]triazin-2-ylamino]-phenyl}-piperidin-1-yl)-acetamide] | < 100 | < 100 | – | – |
| CC(C)(C)NS(=O)(=O)c1cccc(-c2ccc3cnc(Nc4ccc(C5CCNCC5)cc4)nn23)c1 [Example 1059, N-tert-Butyl-3-[2-(4-piperidin-4-yl-phenylamino)-pyrrolo[2,1-f][1,2,4]triazin-7-yl]-benzenesulfonamide] | 100 to 1000 | < 100 | – | – |

Further lines, results first:

| IC50 [1, 3] [nM] | IC50 [2, 4] [nM] | IC50 ([1]; ALK Kinase Inhibition) [nM] | IC50 ([2]; JAK2 Kinase Inhibition) [nM] | Compound |
| --- | --- | --- | --- | --- |
| 100 to 1000 | < 100 | – | – | COc1ccccc1-c1ccc2cnc(Nc3ccc4oc(C)nc4c3)nn12 [Example 564, [7-(2-Methoxy-phenyl)-pyrrolo[2,1-f][1,2,4]triazin-2-yl]-(2-methyl-benzoxazol-5-yl)-amine] |
| 100 to 1000 | < 100 | – | – | CN1CCC(c2ccc(Nc3ncc4ccc(-c5cccnc5)n4n3)cc2)CC1 [Example 1179, [4-(1-Methyl-piperidin-4-yl)-phenyl]-(7-pyridin-3-yl-pyrrolo[2,1-f][1,2,4]triazin-2-yl)-amine] |
| – | – | 100 to 1000 | < 100 | COc1cc(Nc2ncc3ccc(-c4ccc(S(C)(=O)=O)cc4)n3n2)cc(OC)c1OC [Example 162, [7-(4-Methanesulfonyl-phenyl)-pyrrolo[2,1-f][1,2,4]triazin-2-yl]-(3,4,5-trimethoxy-phenyl)-amine] |
| – | – | 100 to 1000 | < 100 | O=S(=O)(c1ccccc1)c1ccc2cnc(Nc3ccc(N4CCOCC4)cc3)nn12 [Example 111, (7-Benzenesulfonyl-pyrrolo[2,1-f][1,2,4]triazin-2-yl)-(4-morpholin-4-yl-phenyl)-amine] |
| – | – | 1000 to 10000 | < 100 | CN(C)C(=O)CN1CCc2ccc(Nc3ncc4ccc(Br)n4n3)cc2CC1 [Example 1574] |
| 100 to 1000 | < 100 | – | – | CC(C)(C)NS(=O)(=O)c1cccc(-c2ccc3cnc(Nc4ccc(N5CCC(N6CCNC(=O)C6)CC5)cc4)nn23)c1 [Example 562, N-tert-Butyl-3-(2-{4-[4-(3-oxo-piperazin-1-yl)-piperidin-1-yl]-phenylamino}-pyrrolo[2,1-f][1,2,4]triazin-7-yl)-benzenesulfonamide] |
| – | – | > 10000 | < 100 | [5-Bromo-7-(4-methanesulfonyl-phenyl)-pyrrolo[2,1-f][1,2,4]triazin-2-yl]-(4-morpholin-4-yl-phenyl)-amine [Example 99] |
| – | – | < 100 | 100 to 1000 | COc1cc(N2CCC(CN3CCN(C)CC3)CC2)ccc1Nc1ncc2ccc(-c3ccccc3N(C)S(C)(=O)=O)n2n1 [Example 467, N-[2-(2-{2-Methoxy-4-[4-(4-methyl-piperazin-1-ylmethyl)-piperidin-1-yl]-phenylamino}-pyrrolo[2,1-f][1,2,4]triazin-7-yl)-phenyl]-N-methyl-methanesulfonamide] |
| 1000 to 10000 | < 100 | – | – | CC(C)(C)NS(=O)(=O)c1cccc(-c2ccc3cnc(Nc4ccc5c(c4)NC(=O)C5)nn23)c1 [Example 652, N-tert-Butyl-3-[2-(2-oxo-2,3-dihydro-1H-indol-6-ylamino)-pyrrolo[2,1-f][1,2,4]triazin-7-yl]-benzenesulfonamide] |
| 100 to 1000 | < 100 | – | – | Cc1nn(C)cc1-c1ccc2cnc(Nc3ccc(N4CCN(C)CC4)cc3)nn12 [Example 1229, [7-(1,3-Dimethyl-1H-pyrazol-4-yl)-pyrrolo[2,1-f][1,2,4]triazin-2-yl]-[4-(4-methyl-piperazin-1-yl)-phenyl]-amine] |
| – | – | > 10000 | 1000 to 10000 | CN1CCN(c2ccc(Nc3ncc4c(-c5ccccc5Cl)ccn4n3)cc2)CC1 [Example 40, [5-(2-Chloro-phenyl)-pyrrolo[2,1-f][1,2,4]triazin-2-yl]-[4-(4-methyl-piperazin-1-yl)-phenyl]-amine] |
| 100 to 1000 | < 100 | – | – | CC(C)(C)NS(=O)(=O)c1cccc(-c2ccc3cnc(Nc4ccc5nn(CCN6CCOCC6)cc5c4)nn23)c1 [Example 1345, N-tert-Butyl-3-{2-[2-(2-morpholin-4-yl-ethyl)-2H-indazol-5-ylamino]-pyrrolo[2,1-f][1,2,4]triazin-7-yl}-benzenesulfonamide] |
